Results published in US10227331B2 (priority 2015, dated 2019).

Assays:
IMP-1 = IMP-1 (Serratia marcescens, UniProt P52699); assay: biochemical; format: biochemical; details: CCF2-FA substrate, 2 hours at 25° C; read-out: IMP-1 IC50
How it was run: (§1)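 IC50 values derive from 4-parameter fits of percent inhibition against inhibitor concentration on semi-log axes. Activity was monitored by fluorescence with the CCF2-FA substrate after a 2-hour, 25° C incubation of compound, enzyme and substrate.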

NDM-1 = NDM-1 (Klebsiella pneumoniae, UniProt C7C422); assay: biochemical; format: biochemical; details: CCF2-FA substrate, 2 hours at 25° C; read-out: NDM-1 IC50
How it was run: as §1

VIM-1 = VIM-1 (Pseudomonas aeruginosa (strain ATCC 15692 / DSM 22644 / CIP 104116 / JCM 14847 / LMG 12228 / 1C / PRS 101 / PAO1), UniProt A0A0F7KYQ8); assay: biochemical; details: CCF2-FA substrate, 2 hours at 25° C
How it was run: as §1

[1] = tested on: Escherichia coli expressing NDM-1 (CLB30005, CLB30016); format: cell-based; details: with imipenem 1 μg/ml, 95% inhibition of bacterial growth
How it was run: (§2)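 Restoration of imipenem susceptibility (1 μg/ml imipenem) was judged by absorbance after 22–24 h at 35° C. Test compound was added to bacteria suspended 1:100 in 1.1× CAMHB from overnight blood-agar cultures.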

[2] = tested on: Klebsiella pneumoniae expressing VIM-1 (IHMA599644); format: cell-based; details: with imipenem 1 μg/ml, 95% inhibition of bacterial growth
How it was run: as §2

[3] = tested on: Serratia marcescens expressing IMP-1 (CL5741); format: cell-based; details: with imipenem 1 μg/ml, 95% inhibition of bacterial growth
How it was run: as §2

[4] = tested on: P. aeruginosa expressing IMP-1, efflux+ (MB9798); format: cell-based, Pseudomonas aeruginosa; details: for P. aeruginosa expressing IMP-1, efflux+ (MB9798) MITC95: imipenem at 2 μg/mL, in the presence of a class A, C, D serine β-lactamase inhibitor closely related to relebactam; for Efflux ratio: ratio MITC95 PA_9798/MITC95 PA_9799
Description: (§3) The strain background is Pseudomonas aeruginosa PAO1.

[5] = tested on: P. aeruginosa expressing IMP-1, efflux− (MB9799); assay: Efflux: concentration of MBL inhibitor which restores susceptibility to imipenem; format: cell-based, Pseudomonas aeruginosa; details: imipenem at 2 μg/mL, in the presence of a class A, C, D serine β-lactamase inhibitor closely related to relebactam
Description: as §3

IMP-1, sequence (P52699 whole entry, looked up, species assumed): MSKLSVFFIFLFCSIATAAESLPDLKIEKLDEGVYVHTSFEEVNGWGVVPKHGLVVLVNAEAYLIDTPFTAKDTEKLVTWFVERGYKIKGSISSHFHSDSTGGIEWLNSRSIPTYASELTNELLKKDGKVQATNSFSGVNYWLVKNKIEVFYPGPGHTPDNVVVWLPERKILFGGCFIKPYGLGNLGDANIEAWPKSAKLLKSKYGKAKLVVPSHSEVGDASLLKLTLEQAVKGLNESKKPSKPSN
NDM-1, sequence (C7C422 whole entry, looked up, species assumed): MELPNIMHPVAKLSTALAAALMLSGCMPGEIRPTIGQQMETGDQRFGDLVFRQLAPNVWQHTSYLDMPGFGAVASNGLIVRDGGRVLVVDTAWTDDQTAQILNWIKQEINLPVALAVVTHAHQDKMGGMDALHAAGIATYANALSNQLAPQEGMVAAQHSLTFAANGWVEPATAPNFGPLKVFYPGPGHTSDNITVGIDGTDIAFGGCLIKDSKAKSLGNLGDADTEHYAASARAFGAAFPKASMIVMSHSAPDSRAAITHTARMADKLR

| SMILES | IC50 (IMP-1) | IC50 (NDM-1) | IC50 (VIM-1) | Escherichia coli expressing NDM-1 (CLB30016) MITC95 [1] | Klebsiella pneumoniae expressing VIM-1 (IHMA599644) MITC95 [2] | Serratia marcescens expressing IMP-1 (CL5741) MITC95 [3] | P. aeruginosa expressing IMP-1, efflux+ (MB9798) MITC95 [4] | Efflux ratio [4] | P. aeruginosa expressing IMP-1, efflux− (MB9799) MITC95 [5] | Escherichia coli MITC95 ([1]; NDM-1 (CLB30016)) | Klebsiella pneumoniae MITC95 ([2]; VIM-1 (IHMA599644)) | Serratia marcescens MITC95 ([3]; IMP-1 (CL5741)) |
| --- | --- | --- | --- | --- | --- | --- | --- | --- | --- | --- | --- | --- |
| NS(=O)(=O)c1c(S(=O)(=O)C2CNC2)ccc(-c2ccc3ncccc3c2)c1-c1nnn[nH]1.O=C(O)C(F)(F)F [Example 115, 3-((4-(quinolin-6-yl)-2-sulfamoyl-3-(1H-tetrazol-5-yl)phenyl)sulfonyl)azetidin-1-ium 2,2,2-trifluoroacetate] | 0.793 nM | 0.236 nM | 0.276 nM | 3.125 µM | 3.125 µM | 3.125 µM | 12.5 µM | 8.00 | 1.563 µM |  |  |  |
| NCCS(=O)(=O)c1ccc(-c2cccc3c2nc(N)n3C2CNC2)c(-c2nn[nH]n2)c1S(N)(=O)=O [Example 202, 3-(2-amino-1-(azetidin-3-yl)-1H-benzo[d]imidazol-4-yl)-6-((2-aminoethyl)sulfonyl)-2-(2H-tetrazol-5-yl)benzenesulfonamide] | 0.859 nM | 2.92 nM | 1.1 nM | 1.563 µM | 3.125 µM | 3.125 µM | 6.25 µM | 4.00 | 1.563 µM |  |  |  |
| Nc1nc2cccc(-c3ccc(S(=O)(=O)[C@H]4CC[C@@H](N)CC4)c(S(N)(=O)=O)c3-c3nn[nH]n3)c2[nH]1 [Example 177, 3-(2-amino-3H-benzo[d]imidazol-4-yl)-6-((1s,4s)-4-aminocyclohexylsulfonyl)-2-(2H-tetrazol-5-yl)benzenesulfonamide] | 1.35 nM | 0.264 nM | 0.293 nM | 0.7813 µM | 1.563 µM | 0.7813 µM | 0.7813 µM | 1.00 | 0.7813 µM |  |  |  |
| NCCS(=O)(=O)c1ccc(-c2cccc3nc(N)nn23)c(-c2nn[nH]n2)c1S(N)(=O)=O [Example 225, 3-(2-amino-[1,2,4]triazolo[1,5-a]pyridin-5-yl)-6-((2-aminoethyl)sulfonyl)-2-(2H-tetrazol-5-yl)benzenesulfonamide] | 1.97 nM | 0.164 nM | 0.229 nM | 1.563 µM | 3.125 µM | 1.563 µM | 3.125 µM | 2.00 | 1.563 µM |  |  |  |
| NCCS(=O)(=O)c1ccc(-c2cccc(NC(=O)CN)c2NC(=O)CN)c(-c2nn[nH]n2)c1S(N)(=O)=O [Example 338, N,N′-(4′-((2-Aminoethyl)sulfonyl)-3′-sulfamoyl-2′-(2H-tetrazol-5-yl)-[1,1′-biphenyl]-2,3-diyl)bis(2-aminoacetamide)] | 74.9 nM | 20.4 nM | 15.1 nM |  |  |  | 25 µM | 4.00 | 6.25 µM | 1.563 µM | 6.25 µM | 3.125 µM |
